Laboratory results published in publication PMC6355318 (Bioorganic & Medicinal Chemistry Letters, 2019).
≈ marks a conversion by molar mass, not a printed value.

Legend:
PfPKG = PfPKG (Plasmodium falciparum, UniProt Q8I719); assay: biochemical; format: biochemical; conditions: for IC50: recombinant kinase, read-out: PfPKG pIC50 (converted); for LLE: LLE (pIC50 - mLogD)
P. falciparum = assay: blood stage hypoxanthine incorporation (HXI) cell-based assay; conditions: Plasmodium falciparum, read-out: Pf HXI pEC50 (converted)
From the text: [23] For full details on both biochemical assay and anti-malarial hypoxanthine incorporation (cell based) assay procedures, see reference 14.

[1] = % remaining after 30 mins, mouse liver microsomes, 1 μM
Experimental: Microsomal turnover data was obtained using mouse liver microsomes (MLM) obtained from BD Biosciences. The compounds are pre-incubated at 37 °C for 5 minutes with the microsomes and the reaction was initiated by adding an equal volume of NADPH generating solution, also obtained from BD Biosciences. The final compound concentration in the incubation is 1 μM, and the microsomal protein concentration is 0.2 mg/mL. A sample is taken at t=0 and quenched with 2x volume of ice-cold methanol containing an internal standard reference compound (carbamazepine). The reaction is agitated at 37 °C for 30 minutes, when a further sample was taken and quenched in an identical fashion. The samples were centrifuged at 10000 rpm for 10 minutes and the supernatant taken for analysis in triplicate by LC-MS/MS (Agilent Technologies G6410 series, triple quadrupole with MM-ESI ion source) using optimised multiple reaction monitoring (MRM) scans and a standard column gradient on an Acquity UPLC BEH C8 1.7μm column, running acetonitrile and water with 0.05% acetic acid as the mobile phase. The % turnover is obtained by calculating the percentage difference of the peak areas, normalised to the internal standard, at t=0 and t=30. Verapamil is used as the standard compound for this assay.

[2] = passive permeability, 5 hours at room temperature
[3] = Measured logD (shake flask); format: physicochemical; conditions: octanol/PBS
Experimental: LogD measurements were carried out using the shake flask method. […] The ratios of areas of the peaks were used to calculate the LogD in accordance with the equation:
LogD = Log10(Area-TL/Area BL)

Kinetic solubility = format: physicochemical; conditions: PBS pH 7.4 with 2% DMSO, PBS pH7.4, 98:2 PBS:DMSO, 90 minutes, target 200 μM
Experimental: Each compound was run in triplicate on the same plate with two standard compounds, verapamil and ketoconazole, included per plate. The filtration plate was shaken at 500 rpm for 90 minutes and then filtered under vacuum. The filtrate was sampled and diluted with a DMSO:PBS mixture in a flat bottomed UV plate to give a solution with a composition of PBS:DMSO 80:20. […] The UV absorbance for these solutions was read across 230-400 nm at 1 nm intervals using a TECAN Safire II plate reader and a suitable UV wavelength chosen around the UV maximum of each compound.

Chain of PfPKG (Q8I719 whole entry): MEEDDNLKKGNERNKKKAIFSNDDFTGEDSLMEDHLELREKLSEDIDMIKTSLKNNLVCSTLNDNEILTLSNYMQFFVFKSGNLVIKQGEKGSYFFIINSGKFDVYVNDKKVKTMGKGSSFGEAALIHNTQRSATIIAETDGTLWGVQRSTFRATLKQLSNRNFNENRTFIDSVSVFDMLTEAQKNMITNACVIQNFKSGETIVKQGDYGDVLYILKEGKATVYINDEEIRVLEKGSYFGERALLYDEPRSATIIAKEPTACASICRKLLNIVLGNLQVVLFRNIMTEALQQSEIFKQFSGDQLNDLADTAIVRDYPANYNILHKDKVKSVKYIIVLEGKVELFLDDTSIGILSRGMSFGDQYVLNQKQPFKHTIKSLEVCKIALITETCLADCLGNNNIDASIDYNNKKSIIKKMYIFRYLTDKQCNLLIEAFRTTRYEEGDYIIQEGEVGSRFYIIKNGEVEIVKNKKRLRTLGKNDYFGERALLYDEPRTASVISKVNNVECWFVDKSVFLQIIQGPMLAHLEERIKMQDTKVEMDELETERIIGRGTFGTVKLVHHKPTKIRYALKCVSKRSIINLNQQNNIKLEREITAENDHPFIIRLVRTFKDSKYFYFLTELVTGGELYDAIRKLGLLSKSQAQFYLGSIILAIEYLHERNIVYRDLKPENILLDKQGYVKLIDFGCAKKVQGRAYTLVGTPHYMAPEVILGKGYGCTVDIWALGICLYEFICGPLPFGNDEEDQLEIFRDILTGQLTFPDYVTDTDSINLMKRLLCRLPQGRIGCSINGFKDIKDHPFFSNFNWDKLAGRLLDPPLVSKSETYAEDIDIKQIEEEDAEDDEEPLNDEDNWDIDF

Row | Structure (SMILES) | IC50 (PfPKG) | EC50 (P. falciparum) | LLE (PfPKG) | fold less biochemically active (PfPKG; compared to 2) | MLM % rem [1] | PAMPA [2] | mLogD [3] | solubility kinetic at 1.5 h, 200 µM (Kinetic solubility)
1 | CN(C)Cc1ccn2c(-c3ccnc(N)n3)c(-c3ccc(F)cc3)nc2c1 [Compound 2, reference compound] | 2 nM | 363 nM |  |  |  |  |  | 
2 | CN(C)Cc1ccn2c(-c3cc(N)ncn3)c(-c3ccc(F)cc3)nc2c1 [Compound 5] | 87.1 nM |  | 4.7 |  |  |  |  | 
3 | CN(C)Cc1ccn2c(-c3ccncn3)c(-c3ccc(F)cc3)nc2c1 [Compound 7, reference compound] | 12 nM |  | 5.9 |  |  |  |  | 
4 | CN(C)Cc1ccn2c(-c3ccncc3)c(-c3ccc(F)cc3)nc2c1 [Compound 8] | 77.6 nM |  | 4.2 | ~40 fold |  |  |  | 
5 | CN(C)Cc1ccn2c(-c3cn[nH]c3)c(-c3ccc(F)cc3)nc2c1 [Compound 9] | 120 nM |  | 5.1 |  |  |  |  | 
6 | CN(C)Cc1ccn2c(-c3ccnc(N)c3)c(-c3ccc(F)cc3)nc2c1 [Compound 10] | 52.5 nM |  | 5.3 |  |  |  |  | 
7 | CN(C)Cc1ccn2c(-c3ccnc(Nc4ccc(N5CCNCC5)cc4)c3)c(-c3ccc(F)cc3)nc2c1 [Compound 11] | 257 nM |  |  |  |  |  |  | 
8 | CN(C)CCCNc1nccc(-c2c(-c3ccc(F)cc3)nc3ccccn23)n1 [Compound 14] | 851 nM |  |  |  | 62% | 8.2 ×10⁻⁶ cm/s | 1.8 | 
9 | Fc1ccc(-c2nc3ccccn3c2-c2ccnc(NC3CCOCC3)n2)cc1 [Compound 15] | 132 nM |  |  |  | 84% | 14.5 ×10⁻⁶ cm/s | 1.8 | 
10 | CN1CCN(c2ccc(Nc3nccc(-c4c(-c5ccc(F)cc5)nc5ccccn45)n3)cc2)CC1 [Compound 16] |  | 115 nM |  |  | 65% | 0 ×10⁻⁶ cm/s | 4.0 | 9 µM (≈ 4.32 µg/mL)
11 | CN1CCC(c2ccc(Nc3nccc(-c4c(-c5ccc(F)cc5)nc5ccccn45)n3)cc2)CC1 [Compound 17] | 5.01 nM | 158 nM |  |  | 55% | 0 ×10⁻⁶ cm/s | 3.3 | 
12 | CN1CCC(n2cc(Nc3nccc(-c4c(-c5ccc(F)cc5)nc5ccccn45)n3)cn2)CC1 [Compound 18] | 100 nM | 575 nM |  |  | 37% | 12.4 ×10⁻⁶ cm/s | 2.7 | 237 µM (≈ 111 µg/mL)
13 | CN(C)Cc1cc2nc(-c3ccc(F)cc3)c(-c3ccnc(N)n3)n2cn1 [Compound 19] | 55 nM | 3720 nM |  |  | 59% | 5.8 ×10⁻⁶ cm/s | 2.1 | 
14 | CN(C)Cc1ccn2c(-c3ccnc(N)n3)c(-c3ccc(F)cc3)nc2n1 [Compound 20] | 81.3 nM | 4070 nM |  |  | 67% | 11.8 ×10⁻⁶ cm/s | 2.1 | 
15 | CN(C)Cc1ccc2c(c1)nc(-c1ccc(F)cc1)n2-c1ccnc(N)n1 [Compound 23] | 30.9 nM |  |  |  | 78% | 3.2 ×10⁻⁶ cm/s | 1.2 | 
16 | CN(C)CCNc1ccc2nc(-c3ccc(F)cc3)c(-c3ccnc(N)n3)n2n1 [Compound 26] | 407 nM |  |  |  | 68% | 1 ×10⁻⁶ cm/s | 1.6 | 
17 | CN(C)Cc1ccc2c(-c3ccnc(N)n3)c(-c3ccc(F)cc3)nn2c1 [Compound 29] | 4.07 nM | 513 nM |  |  | 22% | 18.5 ×10⁻⁶ cm/s | 2.5 | 
